Our source for the carcinogen call and TD50 values is PubChem BioAssay AID1745844 (Carcinogenic Potency Database (CPDB), 2022).

The source made the active and inactive calls. How the calls were made is not given here.

This data set has as its system rodent lifetime carcinogenesis bioassay, tumor incidence TD50. The experiment in a line: chronic cancer bioassays in animals – CPDB, compiled studies (AID 1745844).
Where [1] appears, read: mouse, strain B6AKF1, females, oral dosing, site: any site (literature study), lesion: several types, types named in the paper, dosed 76 weeks, study length 76 weeks.
[2] abbreviates: mouse, strain B6AKF1, females, oral dosing, site: liver, lesion: hepatoma, dosed 76 weeks, study length 76 weeks.
Where [3] appears, read: mouse, strain B6AKF1, females, oral dosing, site: lung, lesion: adenoma, dosed 76 weeks, study length 76 weeks.
Where [4] appears, read: mouse, strain B6AKF1, males, oral dosing, site: any site (literature study), lesion: several types, types named in the paper, dosed 76 weeks, study length 76 weeks.
[5] abbreviates: mouse, strain B6AKF1, males, oral dosing, site: liver, lesion: hepatoma, dosed 76 weeks, study length 76 weeks.
Where [6] appears, read: mouse, strain B6AKF1, males, oral dosing, site: lung, lesion: adenoma, dosed 76 weeks, study length 76 weeks.
Setting [7] is: mouse, strain B6C3F1, females, oral dosing, site: any site (literature study), lesion: several types, types named in the paper, dosed 76 weeks, study length 76 weeks.
Where [8] appears, read: mouse, strain B6C3F1, females, oral dosing, site: liver, lesion: hepatoma, dosed 76 weeks, study length 76 weeks.
Setting [9] is: mouse, strain B6C3F1, females, oral dosing, site: lung, lesion: adenoma, dosed 76 weeks, study length 76 weeks.
The mark [10] stands for this setting: mouse, strain B6C3F1, males, oral dosing, site: any site (literature study), lesion: several types, types named in the paper, dosed 76 weeks, study length 76 weeks.
Where [11] appears, read: mouse, strain B6C3F1, males, oral dosing, site: liver, lesion: hepatoma, dosed 76 weeks, study length 76 weeks.

Regarding `O=S(=O)(O)c1ccc(N=Nc2c(O)ccc3cc(S(=O)(=O)O)ccc23)cc1`, the carcinogen call was “negative (inactive)” (mouse, strain B6C3F1, females, in feed, site: any site (literature study), lesion: several types, types named in the paper, dosed 103 weeks, study length 104 weeks); “negative (inactive)” (mouse, strain Charles River CD (Sprague-Dawley), females, in feed, site: liver, lesion: one or several types, types not named, dosed 80 weeks, study length 80 weeks); “negative (inactive)” (mouse, strain Charles River CD (Sprague-Dawley), females, in feed, site: lung, lesion: adenoma, dosed 80 weeks, study length 80 weeks); “negative (inactive)” (mouse, strain Charles River CD (Sprague-Dawley), males, in feed, site: liver, lesion: one or several types, types not named, dosed 80 weeks, study length 80 weeks); “negative (inactive)” (mouse, strain Charles River CD (Sprague-Dawley), males, in feed, site: lung, lesion: adenoma, dosed 80 weeks, study length 80 weeks); “negative (inactive)” (rat, strain Not specified, females, in feed, site: liver, lesion: one or several types, types not named, dosed 64 weeks, study length 64 weeks). Where the note is “rat, strain Not specified, males, in feed, site: liver, lesion: one or several types, types not named, dosed 64 weeks, study length 64 weeks”, the carcinogen call is “negative (inactive)”. For the same molecule, the TD50 is 66400 mg/kg/day (mouse, strain B6C3F1, females, in feed, site: lung, lesion: alveolar/bronchiolar adenoma + alveolar/bronchiolar carcinoma, dosed 103 weeks, study length 104 weeks); 17800 mg/kg/day (mouse, strain B6C3F1, males, in feed, site: any site (literature study), lesion: several types, types named in the paper, dosed 103 weeks, study length 103 weeks); 14200 mg/kg/day (mouse, strain B6C3F1, males, in feed, site: liver, lesion: hepatocellular adenoma + hepatocellular carcinoma + neoplastic nodule, dosed 103 weeks, study length 103 weeks); 37500 mg/kg/day (inactive) (mouse, strain B6C3F1, males, in feed, site: skin, lesion: fibrosarcoma + fibroma, dosed 103 weeks, study length 103 weeks); 9060 mg/kg/day (inactive) (rat, strain Fischer 344, females, in feed, site: any site (literature study), lesion: several types, types named in the paper, dosed 103 weeks, study length 104 weeks); 11800 mg/kg/day (inactive) (rat, strain Fischer 344, males, in feed, site: any site (literature study), lesion: several types, types named in the paper, dosed 103 weeks, study length 104 weeks). Moreover, the TD50 was 2520 mg/kg/day (rat, strain Fischer 344, males, in feed, site: liver, lesion: hepatocellular adenoma + hepatocellular carcinoma + neoplastic nodule, dosed 103 weeks, study length 104 weeks); 87.4 mg/kg/day (inactive) (rat, strain Not specified, females, in feed, site: any site (literature study), lesion: several types, types named in the paper, dosed 64 weeks, study length 64 weeks); 14000 mg/kg/day (inactive) (rat, strain Not specified, males, in feed, site: any site (literature study), lesion: several types, types named in the paper, dosed 64 weeks, study length 64 weeks).

For the molecule `NC(N)=Nc1nc(CSCCNc2nsnc2N)cs1`, the TD50 (rat, strain Charles River CD (Sprague-Dawley), females, by gavage, site: gastric mucosa, lesion: carcinoid tumor, malignant, dosed 105 weeks, study length 105 weeks) was 6270 mg/kg/day and the TD50 (rat, strain Charles River CD (Sprague-Dawley), males, by gavage, site: gastric mucosa, lesion: carcinoid tumor, malignant, dosed 105 weeks, study length 105 weeks) is 4140 mg/kg/day.

Take `O=C(O[C@@H]1Cc2c(O)cc(O)cc2O[C@@H]1c1cc(O)c(O)c(O)c1)c1cc(O)c(O)c(O)c1`: the carcinogen call (mouse, strain C3H/HeN, males, in drinking water, site: liver, lesion: several types, types named in the paper, dosed 58 weeks, study length 58 weeks) is “negative (inactive)”.

Regarding `CCN(CC)c1ccc(N=Nc2cc[n+]([O-])cc2)cc1`, the carcinogen call (rat, strain Sprague-Dawley, males, in feed, site: liver, lesion: one or several types, types not named, dosed 52 weeks, study length 52 weeks) is “positive”.

As for `ClC1=C(Cl)[C@]2(Cl)[C@@H]3[C@H]4C[C@H]([C@@H]5O[C@H]45)[C@@H]3[C@@]1(Cl)C2(Cl)Cl`, the TD50 by setting is: (mouse, strain B6C3F1, females, in feed, site: any site (literature study), lesion: several types, types named in the paper, dosed 80 weeks, study length 90 weeks) 6.88 mg/kg/day (inactive); (mouse, strain B6C3F1, females, in feed, site: lung, lesion: alveolar/bronchiolar adenoma + alveolar/bronchiolar carcinoma, dosed 80 weeks, study length 90 weeks) 67 mg/kg/day; (mouse, strain B6C3F1, males, in feed, site: any site (literature study), lesion: several types, types named in the paper, dosed 80 weeks, study length 90 weeks) 0.546 mg/kg/day (inactive); (mouse, strain B6C3F1, males, in feed, site: liver, lesion: hepatocellular adenoma + hepatocellular carcinoma + neoplastic nodule, dosed 80 weeks, study length 90 weeks) 0.854 mg/kg/day; (mouse, strain B6C3F1, males, in feed, site: lung, lesion: alveolar/bronchiolar adenoma + alveolar/bronchiolar carcinoma, dosed 80 weeks, study length 90 weeks) 1.27 mg/kg/day; (rat, strain Osborne-Mendel, females, in feed, site: adrenal gland, lesion: adenoma, NOS + carcinoma, NOS, dosed 80 weeks, study length 109 weeks) 0.227 mg/kg/day (inactive). Besides, the TD50 (rat, strain Osborne-Mendel, females, in feed, site: liver, lesion: hemangioma, dosed 117 weeks, study length 121 weeks) is 42.3 mg/kg/day (inactive); the TD50 (rat, strain Osborne-Mendel, females, in feed, site: liver, lesion: hepatocellular adenoma + hepatocellular carcinoma + neoplastic nodule, dosed 80 weeks, study length 110 weeks) was found to be 7.44 mg/kg/day; the TD50 (rat, strain Osborne-Mendel, females, in feed, site: pituitary gland, lesion: adenoma, NOS, dosed 80 weeks, study length 109 weeks) stood at 0.579 mg/kg/day; the TD50 (rat, strain Osborne-Mendel, males, in feed, site: adrenal gland, lesion: adenoma, NOS + carcinoma, NOS, dosed 80 weeks, study length 110 weeks) is 0.553 mg/kg/day (inactive); the TD50 (rat, strain Osborne-Mendel, males, in feed, site: adrenal gland, lesion: adenoma, NOS, dosed 80 weeks, study length 110 weeks) is 0.66 mg/kg/day; the TD50 (rat, strain Osborne-Mendel, males, in feed, site: all sites, lesion: hemangioma, dosed 80 weeks, study length 110 weeks) is 0.661 mg/kg/day. Further, the TD50 is, setting by setting: (rat, strain Osborne-Mendel, males, in feed, site: any site (literature study), lesion: several types, types named in the paper, dosed 80 weeks, study length 110 weeks) 0.776 mg/kg/day (inactive); (rat, strain Osborne-Mendel, males, in feed, site: pancreatic islets, lesion: islet-cell carcinoma, dosed 80 weeks, study length 110 weeks) 1.75 mg/kg/day. The carcinogen call is, setting by setting: (rat, strain Osborne-Mendel, females, in feed, site: any site (literature study), lesion: several types, types named in the paper, dosed 80 weeks, study length 110 weeks) “negative (inactive)”; (rat, strain Osborne-Mendel, females, in feed, site: any site (literature study), lesion: several types, types named in the paper, dosed 117 weeks, study length 121 weeks) “negative (inactive)”; (rat, strain Osborne-Mendel, males, in feed, site: any site (literature study), lesion: several types, types named in the paper, dosed 121 weeks, study length 126 weeks) “negative (inactive)”; (rat, strain Osborne-Mendel, males, in feed, site: liver, lesion: hemangioma, dosed 121 weeks, study length 126 weeks) “negative (inactive)”.

On to `C=COC(N)=O`, for which the TD50 reads like this: (mouse, strain C57BL/10J, females, i.p., site: liver, lesion: hemangioma, dosed 35 weeks, study length 59 weeks) 0.147 mg/kg/day; (mouse, strain C57BL/10J, females, i.p., site: liver, lesion: hemangiosarcoma, dosed 35 weeks, study length 59 weeks) 0.138 mg/kg/day; (mouse, strain C57BL/10J, females, i.p., site: liver, lesion: hepatocellular adenoma, dosed 35 weeks, study length 59 weeks) 4.99 mg/kg/day; (mouse, strain C57BL/10J, females, i.p., site: liver, lesion: hepatocellular carcinoma, dosed 35 weeks, study length 59 weeks) 0.503 mg/kg/day; (mouse, strain C57BL/10J, males, i.p., site: liver, lesion: hemangioma, dosed 35 weeks, study length 59 weeks) 0.112 mg/kg/day; (mouse, strain C57BL/10J, males, i.p., site: liver, lesion: hemangiosarcoma, dosed 35 weeks, study length 59 weeks) 0.118 mg/kg/day. The TD50 (mouse, strain C57BL/10J, males, i.p., site: liver, lesion: hepatocellular adenoma, dosed 35 weeks, study length 59 weeks) amounted to 2.69 mg/kg/day and the TD50 (mouse, strain C57BL/10J, males, i.p., site: liver, lesion: hepatocellular carcinoma, dosed 35 weeks, study length 59 weeks) is 0.629 mg/kg/day.

With `Cc1cc(O)cc(C)c1N(C)C`, the TD50 runs as follows: under setting [1], 220 mg/kg/day (inactive); under setting [4], 1190 mg/kg/day (inactive); under setting [5], 207 mg/kg/day (inactive); under setting [7], 265 mg/kg/day (inactive); under setting [9], 265 mg/kg/day (inactive); under setting [10], 34.8 mg/kg/day (inactive). For the same molecule, the TD50 by setting is: under setting [11], 247 mg/kg/day (inactive); (mouse, strain B6C3F1, males, oral dosing, site: lung, lesion: adenoma, dosed 76 weeks, study length 76 weeks) 56.1 mg/kg/day (inactive). Moreover, the carcinogen call reads like this: under setting [2], “negative (inactive)”; under setting [3], “negative (inactive)”; under setting [6], “negative (inactive)”; under setting [8], “negative (inactive)”.

As for `CCC[CH2][Sn]([CH2]CCC)([CH2]CCC)[O][Sn]([CH2]CCC)([CH2]CCC)[CH2]CCC`, the TD50 runs as follows: (rat, strain Wistar, females, in feed, site: adrenal medulla, lesion: pheochromocytoma, dosed 106 weeks, study length 106 weeks) 1.79 mg/kg/day; (rat, strain Wistar, females, in feed, site: pituitary gland, anterior, lesion: one or several types, types not named, dosed 106 weeks, study length 106 weeks) 3.73 mg/kg/day; (rat, strain Wistar, males, in feed, site: adrenal medulla, lesion: pheochromocytoma, dosed 106 weeks, study length 106 weeks) 1.93 mg/kg/day; (rat, strain Wistar, males, in feed, site: pituitary gland, anterior, lesion: one or several types, types not named, dosed 106 weeks, study length 106 weeks) 1.9 mg/kg/day.

On to `COC(C(=O)O)c1ccccc1` (stereo not given), for which the TD50 reads like this: under setting [1], 227 mg/kg/day (inactive); under setting [3], 236 mg/kg/day (inactive); under setting [4], 139 mg/kg/day (inactive); under setting [5], 3620 mg/kg/day (inactive); under setting [6], 157 mg/kg/day (inactive); under setting [7], 157 mg/kg/day (inactive). For the same molecule, the TD50 was 244 mg/kg/day (inactive) under setting [9]; 82.1 mg/kg/day (inactive) (mouse, strain B6C3F1, males, oral dosing, site: all sites, lesion: reticulum-cell sarcoma, dosed 76 weeks, study length 76 weeks); 54.2 mg/kg/day (inactive) under setting [10]; 227 mg/kg/day (inactive) under setting [11]. In addition, the carcinogen call reads like this: under setting [2], “negative (inactive)”; under setting [8], “negative (inactive)”; (mouse, strain B6C3F1, males, oral dosing, site: lung, lesion: several types, types named in the paper, dosed 76 weeks, study length 76 weeks) “negative (inactive)”.
